Assay results reported in patent US8110605B2, “Compound for inactivating viruses and bacteria and method of making same” (priority 2009, dated 2012).
Like-named read-outs stand apart in the source and are kept apart here.

Tests used:
[1] = test system: Influenza virus H1N1 subtype (A/WSN/33); type: cell-based
[2] = test system: H5N2 avian influenza virus (TW1209/04(H5N2)AIV); type: cell-based
[3] = test system: Staphylococcus aureus strain (ATCC-25923); assay: Proliferation suppression of Staphylococcus aureus, MIC by broth dilution; type: cell-based; parameters: key to MIC of S. aureus: +: Proliferation of S. aureus,; −: Antibacterial effect of S. aureus; conditions: 10^4 CFU/mL
[4] = test system: H5N1 avian influenza virus (TW1209/03(H5N1)AIV); type: cell-based
[5] = test system: H5N2 avian influenza virus (TW1209/04(H5N2)AIV); type: cell-based; remark: listed apart in the source
MDCK cells [6] = test system: MDCK cells
[7] = test system: H5N1 avian influenza virus (TW1209/03(H5N1)AIV); type: cell-based; remark: listed apart in the source
MDCK cells [8] = test system: MDCK cells; remark: listed apart in the source
[9] = test system: avian influenza virus (AIV) subtype H5N2 (TW1209/04(H5N2)AIV) virions
[10] = test system: Enterovirus type 71 (EV-71) virions; assay: AFM of Enterovirus type 71 virions treated with the compound; conditions: for maximum height of virus particles (AFM cursor profile): 5-10 minutes, native virion 75.23 nm; for calculated RMS height of treated particles: over 60 virus particles
MDCK cells [11] = test system: MDCK cells; remark: listed apart in the source

With `O=C(O)C(CCCCCCCCCCS)C(=O)O` [2-(10-mercaptodecyl)-propanedioic acid] the “CPE, compound only” value (MDCX cells; 3 ppm) was “−”, the “CPE, compound only” value (MDCX cells; 10 ppm) was “−” and the “CPE, compound only” value (MDCX cells; 30 ppm) was “−”. The “CPE, compound only” value (MDCX cells; 100 ppm) was “−”, the “CPE, compound only” value (MDCX cells; 300 ppm) was “−” and the “CPE, compound only” value (MDCX cells; 1,000 ppm) was “CTX”. The “CPE, compound only” value (MDCX cells; 3,000 ppm) was “CTX”, the “concentration at which cytotoxicity occurred” value (MDCX cells; dog) was “exceeding 1,000 ppm” and the “concentration causing no cytotoxicity” value (MDCX cells; dog) was “less than 300 ppm”. For the same compound, the “concentration protecting cells against infection by influenza virus H1N1 subtype (as low as)” value [1] was 30 ppm, the “CPE, H1N1 influenza virus treated with compound” value ([1]; 3 ppm) was “+” and the “CPE, H1N1 influenza virus treated with compound” value ([1]; 30 ppm) was “−”. For the same compound, the “CPE, H1N1 influenza virus treated with compound” value ([1]; 100 ppm) was “−”, the “CPE, H1N1 influenza virus treated with compound” value ([1]; 300 ppm) was “−” and the “CPE, H1N1 influenza virus treated with compound” value ([1]; 1,000 ppm) was “CTX”. The “CPE, H1N1 influenza virus treated with compound” value ([1]; 3,000 ppm) was “CTX”, the “concentration protecting RBC cells to sustain no agglutination (HA testing, H5N2)” value [2] was “above 1,000 ppm” and the “HA, H5N2 avian influenza virus treated with compound” value ([2]; 3 ppm) was “+”. For the same compound, the “HA, H5N2 avian influenza virus treated with compound” value ([2]; 10 ppm) was “+”, the “HA, H5N2 avian influenza virus treated with compound” value ([2]; 30 ppm) was “+” and the “HA, H5N2 avian influenza virus treated with compound” value ([2]; 100 ppm) was “−”. For the same compound, the “HA, H5N2 avian influenza virus treated with compound” value ([2]; 300 ppm) was “−”, the “HA, H5N2 avian influenza virus treated with compound” value ([2]; 1,000 ppm) was “CTX” and the “HA, H5N2 avian influenza virus treated with compound” value ([2]; 3,000 ppm) was “CTX”. For the same compound, the MIC ([3]; Staphylococcus aureus, ATCC25923, broth dilution method, read-out: final concentration suppressing proliferation of S. aureus (MIC)) was 20 µg/mL, the “MIC of S. aureus” value ([3]; final concentration 5 ppm) was “+” and the “MIC of S. aureus” value ([3]; final concentration 10 ppm) was “+”. The “MIC of S. aureus” value ([3]; final concentration 20 ppm) was “−”, the “MIC of S. aureus” value ([3]; final concentration 50 ppm) was “−” and the “MIC of S. aureus” value ([3]; final concentration 100 ppm) was “−”. For the same compound, the “MIC of S. aureus” value ([3]; final concentration 200 ppm) was “−”, the “concentration protecting cells against H5N1 influenza virus infection” value [4] was “above 1,000 ppm” and the “CPE, H5N1 avian influenza virus treated with compound” value ([4]; 3 ppm) was “+”. For the same compound, the “CPE, H5N1 avian influenza virus treated with compound” value ([4]; 10 ppm) was “+”, the “CPE, H5N1 avian influenza virus treated with compound” value ([4]; 30 ppm) was “+” and the “CPE, H5N1 avian influenza virus treated with compound” value ([4]; 100 ppm) was “−”. For the same compound, the “CPE, H5N1 avian influenza virus treated with compound” value ([4]; 300 ppm) was “−”, the “CPE, H5N1 avian influenza virus treated with compound” value ([4]; 1,000 ppm) was “CTX” and the “CPE, H5N1 avian influenza virus treated with compound” value ([4]; 3,000 ppm) was “CTX”. For the same compound, the “concentration protecting cells against H5N2 influenza virus infection” value [5] was “above 1,000 ppm”, the “CPE, H5N2 avian influenza virus treated with compound” value ([5]; 3 ppm) was “+” and the “CPE, H5N2 avian influenza virus treated with compound” value ([5]; 10 ppm) was “+”. The “CPE, H5N2 avian influenza virus treated with compound” value ([5]; 30 ppm) was “+”, the “CPE, H5N2 avian influenza virus treated with compound” value ([5]; 100 ppm) was “−” and the “CPE, H5N2 avian influenza virus treated with compound” value ([5]; 300 ppm) was “−”. The “CPE, H5N2 avian influenza virus treated with compound” value ([5]; 1,000 ppm) was “CTX”, the “CPE, H5N2 avian influenza virus treated with compound” value ([5]; 3,000 ppm) was “CTX” and the “CPE, compound only” value (MDCK cells [6]; 3 ppm) was “−”. The “CPE, compound only” value (MDCK cells [6]; 10 ppm) was “−”, the “CPE, compound only” value (MDCK cells [6]; 30 ppm) was “−” and the “CPE, compound only” value (MDCK cells [6]; 100 ppm) was “−”. For the same compound, the “CPE, compound only” value (MDCK cells [6]; 300 ppm) was “−”, the “CPE, compound only” value (MDCK cells [6]; 1,000 ppm) was “CTX” and the “CPE, compound only” value (MDCK cells [6]; 3,000 ppm) was “CTX”. For the same compound, the “concentration protecting RBC cells to sustain no agglutination (HA testing, H5N1)” value [7] was “above 1,000 ppm”, the “HA, H5N1 avian influenza virus treated with compound” value ([7]; 3 ppm) was “+” and the “HA, H5N1 avian influenza virus treated with compound” value ([7]; 10 ppm) was “+”. The “HA, H5N1 avian influenza virus treated with compound” value ([7]; 30 ppm) was “+”, the “HA, H5N1 avian influenza virus treated with compound” value ([7]; 100 ppm) was “−” and the “HA, H5N1 avian influenza virus treated with compound” value ([7]; 300 ppm) was “−”. The “HA, H5N1 avian influenza virus treated with compound” value ([7]; 1,000 ppm) was “CTX”, the “HA, H5N1 avian influenza virus treated with compound” value ([7]; 3,000 ppm) was “CTX” and the “CPE, compound only” value (MDCK cells [8]; 3 ppm) was “−”. For the same compound, the “CPE, compound only” value (MDCK cells [8]; 10 ppm) was “−”, the “CPE, compound only” value (MDCK cells [8]; 30 ppm) was “−” and the “CPE, compound only” value (MDCK cells [8]; 100 ppm) was “−”. For the same compound, the “CPE, compound only” value (MDCK cells [8]; 300 ppm) was “−”, the “CPE, compound only” value (MDCK cells [8]; 1,000 ppm) was “CTX” and the “CPE, compound only” value (MDCK cells [8]; 3,000 ppm) was “CTX”. For the same compound, the “viral morphology by AFM” value [9] was “broken down and flattened”, the “calculated RMS height of treated particles” value (from here on “calculated RMS height”) ([9]; 100 ppm) was 14.29±0.87 nm and the “calculated RMS height” value ([9]; 1,000 ppm) was 5.62±0.53 nm. For the same compound, the “viral morphology by AFM” value ([10]; 30 and 1,000 ppm, FIGS. 5B and 5C) was “broken down and flattened”, the “maximum height of virus particles (AFM cursor profile)” value ([10]; 30 ppm, FIG. 5B′) was ~10.35 nm and the “calculated RMS height” value ([10]; 30 ppm) was 10.49±0.52 nm. For the same compound, the “maximum height of virus particles (AFM cursor profile)” value ([10]; 1,000 ppm, FIG. 5C′) was ~8.41 nm, the “calculated RMS height” value ([10]; 1,000 ppm) was 8.35±0.63 nm and the “CPE, compound only” value (MDCK cells [11]; 3 ppm) was “−”. For the same compound, the “CPE, compound only” value (MDCK cells [11]; 10 ppm) was “−”, the “CPE, compound only” value (MDCK cells [11]; 30 ppm) was “−” and the “CPE, compound only” value (MDCK cells [11]; 100 ppm) was “−”. The “CPE, compound only” value (MDCK cells [11]; 300 ppm) was “−”, the “CPE, compound only” value (MDCK cells [11]; 1,000 ppm) was “CTX” and the “CPE, compound only” value (MDCK cells [11]; 3,000 ppm) was “CTX”.
